In ChEMBL document CHEMBL5608113, “Targeting of CAF-induced therapy resistance in CRC organoid-stroma co-cultures” (2024) one finds viability data, which are given here for 23 molecules.

SMILES strings stand for the structures.

Common to all, as to assay type: functional, Homo sapiens
Common to all, as to details: Homo sapiens, read-out: Cell Viability; for viability at 10 µM: Concentration 10 uM; for viability at 1 µM: Concentration 1 uM

Test [1] has as its system Colon cancer organoid. Nature of the test: Targeting of F14 CAF-induced therapy resistance in O23 CRC organoid-stroma co-culture. Cell viability is reported without Gefitinib.
Test [2] has as its system Colon cancer organoid. Nature of the test: Targeting of F14 CAF-induced therapy resistance in O23 CRC organoid-stroma co-culture. Cell viability is reported with Gefitinib.
In test [3] the test system is Colon cancer organoid. The experiment in a line: Targeting of F14 CAF-induced therapy resistance in O23 CRC organoid-stroma co-culture. Cell viability is reported with SN-38.
In test [4] the test system is Colon cancer organoid. Nature of the test: Targeting of F14 CAF-induced therapy resistance in O14 CRC organoid-stroma co-culture. Cell viability is reported with Gefitinib.
For test [5], the system named is Colon cancer organoid. Nature of the test: Targeting of F14 CAF-induced therapy resistance in O14 CRC organoid-stroma co-culture. Cell viability is reported without Gefitinib.

For `CN1CCN(C(=O)C(C)(C)c2ccc(C(=O)Nc3cn4cc(-c5ccncc5)ccc4n3)cc2)CC1` [T3-CLK], the viability (as a rule, a read-out of living cells in per cent, often relative to untreated cells) at 10 µM came out at 27.9% in the test with Colon cancer organoid [1]; 12.1% with Colon cancer organoid [2]; 18.9% with Colon cancer organoid [3]; 7.96% in the test with Colon cancer organoid [4]; 38.4% with Colon cancer organoid [5].

On to `COc1cccc(CNC(=O)c2nc3scc(COCc4ccc(C(=O)O)cc4)c3c(=O)[nH]2)c1` [T-26c], for which the viability at 1 µM with Colon cancer organoid [1] is 98.3%; with Colon cancer organoid [2] it was 68.3%; in the test with Colon cancer organoid [3], 62.7%; in the test with Colon cancer organoid [4], 60%; in the test with Colon cancer organoid [5], 173%.

Take `COc1cccc(CNC(=O)c2nc3scc(CN(C)Cc4ccccc4)c3c(=O)[nH]2)c1` [T-26f]: the viability at 10 µM amounted to 98.9% with Colon cancer organoid [1]; 45.7% with Colon cancer organoid [2]; 67.3% with Colon cancer organoid [3]; 63.8% in the test on Colon cancer organoid [4]; 112% with Colon cancer organoid [5].

Turning to `COc1cccc2c1c(O)c(C(=O)N(C)c1ccc(C(F)(F)F)cc1)c(=O)n2C` [TASQUINIMOD], the viability at 10 µM in the test on Colon cancer organoid [1] was 99.2%; in the test with Colon cancer organoid [2], 47.3%; with Colon cancer organoid [3] it was 83%; in the test with Colon cancer organoid [4], 61.6%; with Colon cancer organoid [5], 80.1%.

For `CC(C)CC(=O)N1CCc2nc(-c3ccc(Br)cc3)nc(N(C)Cc3ccccc3)c2C1` [THPP-1-NC], the viability at 1 µM is 127% with Colon cancer organoid [1]; 47.3% in the test on Colon cancer organoid [2]; 70.5% in the test on Colon cancer organoid [3]; 39.6% with Colon cancer organoid [4]; 95.7% in the test with Colon cancer organoid [5].

On to `COCCOc1nc(-c2ccc(Cl)nc2)nc2c1CN(C(=O)c1ncn3ccccc13)CC2` [THPP-1], for which the viability at 1 µM in the test with Colon cancer organoid [1] is 141%; in the test with Colon cancer organoid [2], 47.7%; in the test with Colon cancer organoid [3], 58.4%; with Colon cancer organoid [4] it was 37.5%; in the test with Colon cancer organoid [5], 100%.

`Cc1cnc(-c2cc(Cl)ccc2F)cc1-n1c(=O)n(CC(N)=O)c2cnccc21` [TP-008]: the viability at 10 µM in the test on Colon cancer organoid [1] is 147%; in the test on Colon cancer organoid [2] it was 43.8%; in the test with Colon cancer organoid [3], 94%; in the test with Colon cancer organoid [4], 43.1%; in the test with Colon cancer organoid [5], 114%.

`Cn1nc(C(F)(F)F)cc1-c1cnc(N2CCc3cc(S(=O)(=O)Nc4c(F)cc(Cl)cc4F)cc(N4CCCC4=O)c32)nc1` [TP-020]: the viability at 10 µM in the test with Colon cancer organoid [1] worked out at 133%; in the test with Colon cancer organoid [2], 65.7%; with Colon cancer organoid [3] it was 92.4%; with Colon cancer organoid [4], 61.7%; in the test with Colon cancer organoid [5], 95%.

`Nc1cnc(N2CCc3cc(S(=O)(=O)Nc4c(F)cc(Cl)cc4F)cc(N4CCCC4=O)c32)nc1` [TP-020n]: the viability at 1 µM with Colon cancer organoid [1] came to 115%; with Colon cancer organoid [2], 45.8%; with Colon cancer organoid [3], 64.8%; in the test on Colon cancer organoid [4], 71.3%; in the test on Colon cancer organoid [5], 104%.

For `N#Cc1ccc(Nc2ccc3[nH]c(=O)[nH]c3c2)c(Cl)c1` [TP-021n], the viability at 1 µM in the test on Colon cancer organoid [1] was found to be 161%; in the test on Colon cancer organoid [2] it was 47.2%; in the test with Colon cancer organoid [3] it was 63.2%; in the test on Colon cancer organoid [4], 59.2%; in the test on Colon cancer organoid [5], 115%.

For the molecule `Cc1cc(-n2nc(Cc3cc(F)cc(C(F)(F)F)c3)nc2C)ccc1C(N)=O` [TP-024], the viability at 10 µM is 153% with Colon cancer organoid [1]; 79% in the test on Colon cancer organoid [2]; 81% in the test on Colon cancer organoid [3]; 49.8% in the test on Colon cancer organoid [4]; 110% with Colon cancer organoid [5].

With `Cc1nc(Cc2cccc(C(F)(F)F)c2)sc1-c1ccc(C(N)=O)nc1` [TP-024n], the viability at 1 µM in the test with Colon cancer organoid [1] stood at 178%; with Colon cancer organoid [2], 43.7%; with Colon cancer organoid [3], 93.5%; in the test with Colon cancer organoid [4], 81.1%; with Colon cancer organoid [5], 123%.

Take `CN1C(=O)[C@@H](N2CCc3cn(Cc4ccccc4)nc3C2=O)COc2ccccc21` [TP-030-1]: the viability at 1 µM was 138% in the test with Colon cancer organoid [1]; 56% in the test with Colon cancer organoid [2]; 66.7% with Colon cancer organoid [3]; 40.8% in the test with Colon cancer organoid [4]; 125% in the test on Colon cancer organoid [5].

For the molecule `CN1C(=O)[C@@H](N2CCc3c(nn(Cc4ccccc4)c3Br)C2=O)COc2ccccc21` [TP-030-2], the viability at 1 µM in the test on Colon cancer organoid [1] came to 165%; with Colon cancer organoid [2] it was 83.4%; with Colon cancer organoid [3] it was 63.7%; in the test on Colon cancer organoid [4], 31.6%; with Colon cancer organoid [5] it was 113%.

For `CC1CCN(c2ccnc(NCc3cn(C)cn3)n2)CC1` [TP-040], the viability at 10 µM in the test with Colon cancer organoid [1] turned out to be 107%; with Colon cancer organoid [2], 81.4%; in the test on Colon cancer organoid [3] it was 62.9%; with Colon cancer organoid [4], 55%; in the test with Colon cancer organoid [5] it was 128%.

For `CN1CCN(c2ccnc(NCCc3ccccc3)n2)CC1` [TP-040n], the viability at 10 µM with Colon cancer organoid [1] came to 177%; in the test with Colon cancer organoid [2], 100%; with Colon cancer organoid [3], 89.4%; with Colon cancer organoid [4], 66.3%; in the test on Colon cancer organoid [5], 192%.

Consider `CC(=O)Nc1cccc(-n2c(=O)n(C3CC3)c(=O)c3c(Nc4ccc(I)cc4F)n(C)c(=O)c(C)c32)c1` [TRAMETINIB], for which the viability at 10 µM is 1.69% in the test with Colon cancer organoid [1]; 1.61% with Colon cancer organoid [2]; 1.6% with Colon cancer organoid [3]; 0.402% in the test with Colon cancer organoid [4]; 1.6% in the test with Colon cancer organoid [5].

Regarding `Cc1ccc2[nH]c(CNCCCc3ccncc3)cc(=O)c2c1` [UCSF924NC], the viability at 10 µM is 95.8% in the test with Colon cancer organoid [1]; 37.3% in the test on Colon cancer organoid [2]; 52.3% with Colon cancer organoid [3]; 33.3% in the test on Colon cancer organoid [4]; 127% in the test on Colon cancer organoid [5].

Consider `Cc1ccc2nc(CNCCCOc3ccccc3)cc(O)c2c1` [UCSF924], for which the viability at 10 µM in the test with Colon cancer organoid [1] was found to be 119%; with Colon cancer organoid [2], 48.9%; with Colon cancer organoid [3] it was 63.9%; with Colon cancer organoid [4], 36.6%; in the test with Colon cancer organoid [5], 105%.

Take `CNC(=O)c1ccccc1Nc1cc(Nc2ccc(N3CCOCC3)cc2OC)ncc1C(F)(F)F` [VS-4718]: the viability at 10 µM in the test with Colon cancer organoid [1] is 22.4%; in the test with Colon cancer organoid [2], 4.5%; in the test with Colon cancer organoid [3], 19.3%; in the test with Colon cancer organoid [4], 5.44%; in the test on Colon cancer organoid [5], 25.2%.

For the molecule `O=C(NNS(=O)(=O)c1ccccc1F)c1cc(F)cc(-c2ccccn2)c1` [WM-1119], the viability at 10 µM in the test on Colon cancer organoid [1] came to 121%; in the test with Colon cancer organoid [2], 40.5%; in the test with Colon cancer organoid [3], 57.2%; in the test on Colon cancer organoid [4] it was 19.4%; in the test on Colon cancer organoid [5], 41%.

`O=C(NNS(=O)(=O)c1ccccc1)c1cc(-c2ccnnc2)ccc1F` [WM-2474]: the viability at 10 µM with Colon cancer organoid [1] was 75.6%; with Colon cancer organoid [2], 61.3%; in the test with Colon cancer organoid [3], 54.2%; in the test on Colon cancer organoid [4] it was 30.5%; in the test on Colon cancer organoid [5], 77.4%.

Regarding `Nc1nc(NCc2ccccc2)nc(-c2cccc(CO)c2)n1` [ZINC32547799], the viability at 10 µM in the test with Colon cancer organoid [1] stood at 139%; in the test on Colon cancer organoid [2], 75.9%; with Colon cancer organoid [3], 119%; with Colon cancer organoid [4], 31.3%; in the test on Colon cancer organoid [5], 76%.
